Laboratory results published in patent publication US11236060B2, “Method for producing solid dispersion containing nobiletin” (KAO CORPORATION, priority 2018, dated 2022).

Test: Solubility in 25° C. water of the poorly water-soluble substance
Format: physicochemical
Settings: poorly water-soluble substance itself (ingredient)

Structure (SMILES)	Solubility in 25° C. water [ppm]
O=c1oc2c(O)c(O)cc3c(=O)oc4c(O)c(O)cc1c4c23 [Ellagic acid, ellagic acid]	4
COc1ccc(-c2cc(=O)c3c(OC)c(OC)c(OC)c(OC)c3o2)cc1OC [Nobiletin, 3′,4′,5,6,7,8-hexamethoxyflavone]	1
